Laboratory results taken from PMC10920834, “Synthesis, anticancer activity, and molecular docking of half-sandwich iron(II) cyclopentadienyl complexes with maleimide and phosphine or phosphite ligands” (Scientific Reports, 2024).
pIC50: −log10 of the molar value.

How the values were obtained:
Assay type in all cases: cell-based, human
A549 cells = assay: Cell viability resazurin assay, A549 cells; settings: for viability of A549 cells relative to control: ± SD
Protocol: (§1) The A549 (human non-small cell lung cancer) cell line was obtained from the American Type Culture Collection (ATCC) and cultured in Dulbecco's Modified Eagle Medium (DMEM) with 10% fetal bovine serum (FBS), 2 mM L-Glutamine, 25 mM HEPES and penicillin/streptomycin solution (100 U/ml and 100 µg/ml, respectively). The HL-60 (human promyelocytic leukemia) cell line was also obtained from the American Type Culture Collection (ATCC) and cultured in Iscove’s Modified Dulbecco's Medium (IMDM) with 15% fetal bovine serum (FBS), 2 mM L-Glutamine, 25 mM HEPES and penicillin/streptomycin solution (100 U/ml and 100 µg/ml, respectively). Both cell lines were cultured in flasks at 37 °C in 5% CO2 and sub-cultured every 2–3 days to maintain exponential growth.
(§2) Firstly, resazurin salt powder was dissolved in sterile 1 × PBS. Cells were then seeded on the 96-well plates in the count of 1 × 10^4 in the case of HL-60 cells and of 5 × 10^4 for PBM cells and of 5 × 10^3 for A549 cells per well. A549 cells were seeded 24 h prior to treatment with the complexes to allow cell adherence to 96-well plate. Iron(II) complexes were added to wells to obtain final concentrations of 0.5, 1, 2.5, 5, 10, 25, 50, 100 and 250 μM. Subsequently, plates were incubated at 37 °C in 5% CO2 for 2 h and 24 h. After that 10 μl of resazurin salt was added to each well and plates again were incubated in 37 °C in 5% CO2 for 2 h. Finally, fluorescence was measured with microplate reader Synergy HT (Bio-Tek Instruments, USA) using an excitation wavelength of 530/25 and an emission wavelength of 590/35 nm. The effects of iron(II) complexes were calculated as the percentage of control fluorescence. IC50 (half maximal inhibitory concentration) values were calculated using a website algorithm (https://www.aatbio.com/tools/ic50-calculator). All assays were performed in octuplicate.

PBM cells = assay: Cell viability resazurin assay, PBM cells; settings: for viability of PBM cells relative to control: ± SD
Source text: Peripheral blood mononuclear (PBM) cells were isolated from a leukocyte-buffy coat collected from the blood of healthy, non-smoking donors at the Blood Bank in Lodz, Poland. The study protocol received approval from the Committee for Research on Human Subjects of the University of Lodz (17/KBBN-UŁ/III/2019). The initial step of isolation process involved mixing buffy coats with PBS in a 1:1 ratio. Subsequently, the mixture was centrifuged using a density gradient of Lymphosep (Cytogen, Zgierz, Poland) at 2200 RPM for 20 min, employing the lowest values for acceleration and deceleration. PBM cells were collected and washed three times by centrifugation with 1 × PBS. Following isolation, the cells were suspended in RPMI 1640 medium.
as §2

HL-60 cells [1] = assay: Cell viability resazurin assay, HL-60 cells; settings: for viability of HL-60 cells relative to control: ± SD
Protocol: as §1, §2

HL-60 cells [2] = assay: Alkaline comet assay, HL-60 cells
Protocol: Selected iron(II) complexes were added to the suspension of the cells to give final concentrations of 1, 5, 10, 25 and 50 μM. HL-60 and A549 cells were incubated with the complexes for 2 h at 37 °C. The comet assay was performed under alkaline conditions according to the procedure of Tokarz et al.[45]. […] Next, the cells were lysed for 1 h at 4 °C in a buffer containing 2.5 M NaCl, 0.1 M EDTA, 10 mM Tris, 1% Triton X-100, pH 10. Following the lysis, the slides were placed in an electrophoresis unit. DNA was allowed to unwind for 20 min in the solution containing 300 mM NaOH and 1 mM EDTA, pH > 13. […] After separation, the slides were washed in water, drained, stained with 2 μg/ml DAPI and covered with cover slips. As a prevention from additional DNA damage, the procedure described above was conducted under limited light or in the dark. Each experiment included the positive control—cells incubated with H2O2 at 20 µM for 15 min on ice (data not shown).
The comets obtained after single cell gel electrophoresis were analysed in the following manner. […] Hundred images of singular comets were randomly selected from each sample and the mean value of DNA in comet tail was taken as an index of DNA damage (expressed in percent).

O=C1C=CC(=O)[N-]1.[C-]#[O+].[C-]#[O+].[Fe+2].c1cc[cH-]c1 [compound 1, CpFe(CO)2(η^1-N-maleimidato)]
viability of A549 cells relative to control (A549 cells; 2 h incubation, 0.5 µM): 93.79 ± 10.65%
viability of A549 cells relative to control (A549 cells; 2 h incubation, 1 µM): 93.56 ± 10.37%
viability of A549 cells relative to control (A549 cells; 2 h incubation, 2.5 µM): 78.45 ± 9.98%
viability of A549 cells relative to control (A549 cells; 2 h incubation, 5 µM): 67.97±12.88%
viability of A549 cells relative to control (A549 cells; 2 h incubation, 10 µM): 63.34 ± 13%
viability of A549 cells relative to control (A549 cells; 2 h incubation, 25 µM): 51.29 ± 9.65%
viability of A549 cells relative to control (A549 cells; 2 h incubation, 50 µM): 41.64 ± 8.89%
viability of A549 cells relative to control (A549 cells; 2 h incubation, 100 µM): 36.49 ± 6.19%
viability of A549 cells relative to control (A549 cells; 2 h incubation, 250 µM): 36.35 ± 4.86%
pIC50 (A549 cells; 24 h incubation): 4.27
viability of A549 cells relative to control (A549 cells; 24 h incubation, 0.5 µM): 75.31 ± 7.67%
viability of A549 cells relative to control (A549 cells; 24 h incubation, 1 µM): 70.02 ± 8.73%
viability of A549 cells relative to control (A549 cells; 24 h incubation, 2.5 µM): 73.33 ± 7.65%
viability of A549 cells relative to control (A549 cells; 24 h incubation, 5 µM): 104.37 ± 10.70%
viability of A549 cells relative to control (A549 cells; 24 h incubation, 10 µM): 108.72 ± 15.90%
viability of A549 cells relative to control (A549 cells; 24 h incubation, 25 µM): 82.97 ± 8.04%
viability of A549 cells relative to control (A549 cells; 24 h incubation, 50 µM): 50.31 ± 12.68%
viability of A549 cells relative to control (A549 cells; 24 h incubation, 100 µM): 9.43 ± 1.69%
viability of A549 cells relative to control (A549 cells; 24 h incubation, 250 µM): 2.35 ± 0.49%
viability of PBM cells relative to control (PBM cells; 2 h incubation, 0.5 µM): 101.07 ± 0.78%
viability of PBM cells relative to control (PBM cells; 2 h incubation, 1 µM): 100.74 ± 0.73%
viability of PBM cells relative to control (PBM cells; 2 h incubation, 2.5 µM): 99.56 ± 1.96%
viability of PBM cells relative to control (PBM cells; 2 h incubation, 5 µM): 99.26 ± 2.82%
viability of PBM cells relative to control (PBM cells; 2 h incubation, 10 µM): 101.49 ± 4.25%
viability of PBM cells relative to control (PBM cells; 2 h incubation, 25 µM): 99.86 ± 1.87%
viability of PBM cells relative to control (PBM cells; 2 h incubation, 50 µM): 100.66 ± 0.97%
viability of PBM cells relative to control (PBM cells; 2 h incubation, 100 µM): 100.59 ± 1.01%
viability of PBM cells relative to control (PBM cells; 2 h incubation, 250 µM): 93.17 ± 2.92%
pIC50 (PBM cells; 24 h incubation): 3.98
viability of PBM cells relative to control (PBM cells; 24 h incubation, 0.5 µM): 106.05 ± 1.67%
viability of PBM cells relative to control (PBM cells; 24 h incubation, 1 µM): 103.84 ± 0.59%
viability of PBM cells relative to control (PBM cells; 24 h incubation, 2.5 µM): 99.3 ± 1.2%
viability of PBM cells relative to control (PBM cells; 24 h incubation, 5 µM): 91.84 ± 1.72%
viability of PBM cells relative to control (PBM cells; 24 h incubation, 10 µM): 85.39 ± 1.19%
viability of PBM cells relative to control (PBM cells; 24 h incubation, 25 µM): 89.23 ± 0.44%
viability of PBM cells relative to control (PBM cells; 24 h incubation, 50 µM): 78.87 ± 1.76%
viability of PBM cells relative to control (PBM cells; 24 h incubation, 100 µM): 50.82 ± 1.08%
viability of PBM cells relative to control (PBM cells; 24 h incubation, 250 µM): 21.96 ± 0.71%
viability of HL-60 cells relative to control (HL-60 cells [1]; 2 h incubation, 0.5 µM): 101.68 ± 0.96%
viability of HL-60 cells relative to control (HL-60 cells [1]; 2 h incubation, 1 µM): 101.06 ± 1.48%
viability of HL-60 cells relative to control (HL-60 cells [1]; 2 h incubation, 2.5 µM): 100.83 ± 2.04%
viability of HL-60 cells relative to control (HL-60 cells [1]; 2 h incubation, 5 µM): 97.79 ± 1.25%
viability of HL-60 cells relative to control (HL-60 cells [1]; 2 h incubation, 10 µM): 89.74 ± 2.7%
viability of HL-60 cells relative to control (HL-60 cells [1]; 2 h incubation, 25 µM): 83.96 ± 1.62%
viability of HL-60 cells relative to control (HL-60 cells [1]; 2 h incubation, 50 µM): 73.55 ± 0.27%
viability of HL-60 cells relative to control (HL-60 cells [1]; 2 h incubation, 100 µM): 24.73 ± 1.89%
viability of HL-60 cells relative to control (HL-60 cells [1]; 2 h incubation, 250 µM): 15.71 ± 0.21%
pIC50 (HL-60 cells [1]; 24 h incubation): 5.11
viability of HL-60 cells relative to control (HL-60 cells [1]; 24 h incubation, 0.5 µM): 106.53 ± 5.45%
viability of HL-60 cells relative to control (HL-60 cells [1]; 24 h incubation, 1 µM): 107.4 ± 3.25%
viability of HL-60 cells relative to control (HL-60 cells [1]; 24 h incubation, 2.5 µM): 109.43 ± 1.41%
viability of HL-60 cells relative to control (HL-60 cells [1]; 24 h incubation, 5 µM): 89.27 ± 2.42%
viability of HL-60 cells relative to control (HL-60 cells [1]; 24 h incubation, 10 µM): 42.91 ± 0.62%
viability of HL-60 cells relative to control (HL-60 cells [1]; 24 h incubation, 25 µM): 37.45 ± 1.48%
viability of HL-60 cells relative to control (HL-60 cells [1]; 24 h incubation, 50 µM): 30.99 ± 0.27%
viability of HL-60 cells relative to control (HL-60 cells [1]; 24 h incubation, 100 µM): 14.21 ± 0.37%
viability of HL-60 cells relative to control (HL-60 cells [1]; 24 h incubation, 250 µM): 3.83 ± 0.21%
DNA damage in HL-60 cells (alkaline comet assay), in words (HL-60 cells [2]; 2 h incubation, 1-50 μM tested): induced DNA damage
DNA in tail (alkaline comet assay) (HL-60 cells [2]; HL-60 cells, 2 h, 50 μM): 25%
